Where two headings read alike, the source gives them in different places.
Tests used:
U87 MG cells [1] = assay: cells; assay type: cell-based, human
Description: In this procedure, U87 MG (2 × 10^4 cells per well) were seeded in BD falcon transparent 96-well plates and incubated for 24 h.

[2] = test system: SVG p12 normal glial cells
[3] = test system: SVG p12 normal glial cells; assay: cells; conditions: Homo sapiens
U87 MG cells [4] = assay: Cellular uptake of ^64Cu-NOTA conjugates; assay type: cell-based, human; conditions: Table S1
Description: (§1) U87 MG (1 × 10^5 per well) were seeded in corning 24-well plates and cultured in DMEM with 10% FBS at 37 °C. […] For uptake assay, cells were washed with PBS to collect surface-bound and internalized activity, and for internalization assay, glycine-HCl wash was performed to remove surface bound activity. Moreover, cells were harvested, counted, and radioactivity was measured using a gamma counter. Results were expressed as percentage of total activity (%) in counts per min (CPM)/10^6 cells. For efflux studies, U87 MG cells were incubated with the complexes for 1 h, then washed with PBS, and replaced with fresh medium. The retained activity was measured over 0 to 24 h after washing.

SVG p12 cells [5] = assay: Cellular uptake of ^64Cu-NOTA conjugates; assay type: cell-based, human; conditions: Table S1
U87 MG cells [6] = assay: Internalization of ^64Cu-NOTA conjugates (glycine-HCl wash); assay type: cell-based, human; conditions: Table S2
Description: as §1

SVG p12 cells [7] = assay: as above; assay type: cell-based, human; conditions: Table S2
U87 MG cells [8] = assay: Efflux kinetics of ^64Cu-NOTA conjugates; assay type: cell-based, human; conditions: Table S3
Description: as §1

SVG p12 cells [9] = assay: Efflux kinetics of ^64Cu-NOTA conjugates; assay type: cell-based, human; conditions: Table S3
[10] = Solubility in aqueous media; assay type: physicochemical; conditions: needs 10% DMSO in saline to fully dissolve
[11] = Stability by mass spectrometry at physiological pH; assay type: physicochemical; conditions: pH 7.0, over 72 h
[12] = 0.5 h after 1 h incubation and wash

Cn1nnc2c(C(N)=O)ncn2c1=O [Temozolomide]
EC50 (U87 MG cells [1]; Homo sapiens, U-87 MG, 24 h, U87 MG, read-out: EC50 24 h U87 MG): 800 ± 11 µM | EC50 (U87 MG cells [1]; Homo sapiens, U-87 MG, 48 h, U87 MG, read-out: EC50 48 h U87 MG): 580 ± 8 µM | EC50 (U87 MG cells [1]; Homo sapiens, U-87 MG, 72 h, U87 MG, read-out: EC50 72 h U87 MG): 575 ± 6 µM | EC50 [2]: 72 ± 5 µM | EC50 ([3]; SVGp12, 24 h, read-out: EC50 24 h SVG p12): 80 ± 10 µM | EC50 ([3]; SVGp12, 48 h, read-out: EC50 48 h SVG p12): 76 ± 7 µM

N=C(N)NCCC[C@@H]1NC(=O)[C@H](CCCCNC(=O)CNC(=O)COCCOCCNC(=O)CN2CCN(CC(=O)O)CCN(CC(=O)O)CC2)NC(=O)[C@@H](Cc2ccccc2)NC(=O)[C@H](CC(=O)O)NC(=O)CNC1=O [[^64Cu]Cu-NOTA-c(RGDfK), metal not drawn]
Uptake 1h U87 MG (U87 MG cells [4]; 1 h, 37 °C): 2.50 ±1.00 % total activity (CPM) /106 cells | Uptake 2h U87 MG (U87 MG cells [4]; 2 h): 3.23 ±0.61 % total activity (CPM) /106 cells | Uptake 4h U87 MG (U87 MG cells [4]; 4 h): 6.08 ± 0.60 % total activity (CPM) /106 cells | Uptake 24h U87 MG (U87 MG cells [4]; 24 h): 14.11 ± 0.95 % total activity (CPM) /106 cells | Uptake 48h U87 MG (U87 MG cells [4]; 48 h): 18.95 ± 0.45 % total activity (CPM) /106 cells | Uptake 1h SVG p12 (SVG p12 cells [5]; 1 h): 2.67 ± 0.20 % total activity (CPM) /106 cells | Uptake 2h SVG p12 (SVG p12 cells [5]; 2 h): 4.02 ± 0.41 % total activity (CPM) /106 cells | Uptake 4h SVG p12 (SVG p12 cells [5]; 4 h): 5.36 ± 0.94 % total activity (CPM) /106 cells | Uptake 24h SVG p12 (SVG p12 cells [5]; 24 h): 7.90 ± 0.41 % total activity (CPM) /106 cells | Uptake 48h SVG p12 (SVG p12 cells [5]; 48 h): 7.30 ± 0.44 % total activity (CPM) /106 cells | Internalized activity 1h U87 MG (U87 MG cells [6]; 1 h): 3.13 ± 0.31 % total activity (CPM) /106 cells | Internalized activity 2h U87 MG (U87 MG cells [6]; 2 h): 3.28 ± 0.26 % total activity (CPM) /106 cells | Internalized activity 4h U87 MG (U87 MG cells [6]; 4 h): 5.00 ± 0.58 % total activity (CPM) /106 cells | Internalized activity 24h U87 MG (U87 MG cells [6]; 24 h): 11.44 ± 0.62 % total activity (CPM) /106 cells | Internalized activity 48h U87 MG (U87 MG cells [6]; 48 h): 15.08 ± 0.38 % total activity (CPM) /106 cells | Internalized activity 1h SVG p12 (SVG p12 cells [7]; 1 h): 1.72 ±0.14 % total activity (CPM) /106 cells | Internalized activity 2h SVG p12 (SVG p12 cells [7]; 2 h): 1.90 ± 0.14 % total activity (CPM) /106 cells | Internalized activity 4h SVG p12 (SVG p12 cells [7]; 4 h): 3.05 ±0.48 % total activity (CPM) /106 cells | Internalized activity 24h SVG p12 (SVG p12 cells [7]; 24 h): 6.80 ± 0.32 % total activity (CPM) /106 cells | Internalized activity 48h SVG p12 (SVG p12 cells [7]; 48 h): 5.98 ± 0.36 % total activity (CPM) /106 cells | Efflux (retained activity) 0.5h U87 MG (U87 MG cells [8]; [12]): 89.28 ± 6.24 % total activity (CPM) /106 cells | Efflux (retained activity) 1h U87 MG (U87 MG cells [8]; 1 h after wash): 85.47 ± 3.64 % total activity (CPM) /106 cells | Efflux (retained activity) 2h U87 MG (U87 MG cells [8]; 2 h after wash): 84.08 ± 7.95 % total activity (CPM) /106 cells | Efflux (retained activity) 4h U87 MG (U87 MG cells [8]; 4 h after wash): 80.93 ± 6.97 % total activity (CPM) /106 cells | Efflux (retained activity) 24h U87 MG (U87 MG cells [8]; 24 h after wash): 67.59 ± 2.23 % total activity (CPM) /106 cells | Efflux (retained activity) 0.5h SVG p12 (SVG p12 cells [9]; [12]): 94.55 ± 7.92 % total activity (CPM) /106 cells | Efflux (retained activity) 1h SVG p12 (SVG p12 cells [9]; 1 h after wash): 88.05 ± 6.90 % total activity (CPM) /106 cells | Efflux (retained activity) 2h SVG p12 (SVG p12 cells [9]; 2 h after wash): 83.93 ± 6.98 % total activity (CPM) /106 cells | Efflux (retained activity) 4h SVG p12 (SVG p12 cells [9]; 4 h after wash): 73.44 ± 3.92 % total activity (CPM) /106 cells | Efflux (retained activity) 24h SVG p12 (SVG p12 cells [9]; 24 h after wash): 17.62 ± 1.81 % total activity (CPM) /106 cells | EC50 (U87 MG cells [1]; 24 h): 0.025 ± 0.007 µM | EC50 (U87 MG cells [1]; 48 h): 0.032 ± 0.009 µM | EC50 (U87 MG cells [1]; 72 h): 0.045 ± 0.002 µM | EC50 [2]: 0.118 ± 0.008 µM | EC50 ([2]; 24 h): > 0.3 µM | EC50 ([2]; 48 h): > 0.2 µM

N=C(N)NCCC[C@@H]1NC(=O)[C@H](CCCCNC(=O)[C@H](CCCCNC(=O)c2cc(-c3ccccn3)nc(-c3ccccn3)c2)NC(=O)COCCOCCNC(=O)CN2CCN(CC(=O)O)CCN(CC(=O)O)CC2)NC(=O)[C@@H](Cc2ccccc2)NC(=O)[C@H](CC(=O)O)NC(=O)CNC1=O [^natCu-NOTA-TP-c(RGDfK), metal not drawn]
solubility in aqueous media [10]: limited solubility in aqueous media | release of copper or platinum (mass spectrometry) [11]: no detectable release of copper or platinum

From PMC12384813
